Assay results published in patent US12227514B2, “Crystal forms of thiophene derivatives” (TIANJIN HEMAY PHARMACEUTICAL CO., LTD., priority 2018, dated 2025).

Experiments:
Format in all cases: physicochemical
[1] = Moisture absorption stability; details: RH=80%
Experimental: Crystal form I of (S)—N-[5-[1-(3-ethoxy-4-methoxyphenyl)-2-(methylsulfonyl)ethyl]-4,6-dioxo-5,6-dihydro-4H-thieno[3,4-c]pyrrole-1-yl]acetamide was placed in a drier containing saturated ammonium chloride solution (RH=80%) until weight was balanced. The crystal form stability of (S)—N-[5-[1-(3-ethoxy-4-methoxyphenyl)-2-(methylsulfonyl)ethyl]-4,6-dioxo-5,6-dihydro-4H-thieno[3,4-c]pyrrole-1-yl]acetamide was tested after weight was balanced.

[2] = High temperature stability and high temperature and high humidity stability; details: for Relevant Substance Contents after 1 Month: storage at 40° C.
Experimental: High Temperature Stability and High Temperature and High Humidity Stability Crystal form I of (S)—N-[5-[1-(3-ethoxy-4-methoxyphenyl)-2-(methylsulfonyl)ethyl]-4,6-dioxo-5,6-dihydro-4H-thieno[3,4-c]pyrrole-1-yl]acetamide was placed at 40° C. (high temperature) or at 40° C. and Rh=75% (high temperature and high humidity) for 1 month. Relevant substance contents of crystal form I of (S)—N-[5-[1-(3-ethoxy-4-methoxyphenyl)-2-(methylsulfonyl)ethyl]-4,6-dioxo-5,6-dihydro-4H-thieno[3,4-c]pyrrole-1-yl]acetamide were tested after 1 month.

[3] = Dissolution rate in water; details: about 25 mg in 900 mL water, 37° C., rotating speed 100/minute
Experimental: The crystal form I of (S)—N-[5-[1-(3-ethoxy-4-methoxyphenyl)-2-(methylsulfonyl)ethyl]-4,6-dioxo-5,6-dihydro-4H-thieno[3,4-c]pyrrole-1-yl]acetamide prepared according to the process in Example 1 was tested.
About 25 mg of crystal form I of (S)—N-[5-[1-(3-ethoxy-4-methoxyphenyl)-2-(methylsulfonyl)ethyl]-4,6-dioxo-5,6-dihydro-4H-thieno[3,4-c]pyrrole-1-yl]acetamide was added to 900 mL of water. The mixture was stirred at a rotating speed of 100/minute at 37° C. for 90 minutes. The supernatant was filtered and diluted. The concentration of the diluted solution (a mg/mL) was determined by ultraviolet spectrophotometer. The dissolution rate was calculated according to the formula 900a/25×100%.

[4] = Pressure stability (tablet press, DSC); details: single punch tablet press, tablet diameter 6 mm, hardness 25-30 N
Experimental: Crystal form I of (S)—N-[5-[1-(3-ethoxy-4-methoxyphenyl)-2-(methylsulfonyl)ethyl]-4,6-dioxo-5,6-dihydro-4H-thieno[3,4-c]pyrrole-1-yl]acetamide was pressed by tablet press machine with single punch. The diameter of the tablet was 6 mm and the hardness was 25-30 N. DSC test was carried out on pressed powder.

Illumination stability = assay: Illumination stability
Experimental: Crystal form I of (S)—N-[5-[1-(3-ethoxy-4-methoxyphenyl)-2-(methylsulfonyl)ethyl]-4,6-dioxo-5,6-dihydro-4H-thieno[3,4-c]pyrrole-1-yl]acetamide was placed in a 4500 lux of illumination box for 1 month. Crystal form stability of (S)—N-[5-[1-(3-ethoxy-4-methoxyphenyl)-2-(methylsulfonyl)ethyl]-4,6-dioxo-5,6-dihydro-4H-thieno[3,4-c]pyrrole-1-yl]acetamide was tested after 1 month.

For `CCOc1cc([C@@H](CS(C)(=O)=O)N2C(=O)c3csc(NC(C)=O)c3C2=O)ccc1OC` [crystal form I, (S)—N-[5-[1-(3-ethoxy-4-methoxyphenyl)-2-(methylsulfonyl)ethyl]-4,6-dioxo-5,6-dihydro-4H-thieno[3,4-c]pyrrole-1-yl]acetamide], the “Crystal form stability under high humidity conditions” value [1] was “good crystal form stability”, the “Chemical stability under high temperature and high-temperature and high-humidity conditions” value ([2]; 40° C. or 40° C. and RH 75%, 1 month) was “good chemical stability” and the “Relevant Substance Contents at Day 0” value ([2]; before storage) was 0.06%. For the same compound, the “Relevant Substance Contents after 1 Month” value [2] was 0.07%, the “Relevant Substance Contents after 1 Month” value ([2]; RH = 75%) was 0.09% and the “Dissolution Rate” value ([3]; time 15 min) was 40.0%. For the same compound, the “Dissolution Rate” value ([3]; time 30 min) was 55.9%, the “Dissolution Rate” value ([3]; time 45 min) was 65.2% and the “Dissolution Rate” value ([3]; time 60 min) was 71.4%. For the same compound, the “Dissolution Rate” value ([3]; time 75 min) was 75.5%, the “Dissolution Rate” value ([3]; time 90 min) was 78.0% and the “Pressure stability (DSC curve of pressed powder compared with FIG. 2)” value [4] was “good stability”. The “Relevant Substance Contents after 1 Month” value (Illumination stability; 4500 lux illumination box) was 0.06%, the “Chemical stability under illumination conditions” value (Illumination stability; 4500 lux, 1 month) was “good chemical stability” and the “Relevant Substance Contents at Day 0” value (Illumination stability; before illumination) was 0.06%.
